Measurements published in patent US9056840B2, “Coelenterazine analogues and coelenteramide analogues” (JNC Corporation, priority 2010, dated 2015).

Legend:
Format in all cases: physicochemical
[1] = biological target: T1, apoaequorin (Aequorea victoria, UniProt P07164); assay: Fluorescence spectra of semi-synthetic BFP (coelenteramide analogue + apoaequorin, CaCl2); conditions: 10 mM CaCl2 buffer, excitation 337 nm
T1 construct: purchased Chisso Corporation
Protocol: Semi-synthetic gFP was prepared from recombinant apoaequorin and coelenteramide analogues as follows. In 1 ml of 50 mM Tris-HC 1 (pH 7.6) containing 10 mM CaCl2 and 1 mM DTT, apoaequorin (0.2 mg) was mixed with 8 μl of a coelenteramide analogue (1 μg/μl in anhydrous methanol). The mixture was allowed to stand at 4° C. for 16 hours to prepare semi-synthetic BFP-like protein (hereinafter sometimes simply referred to as “semi-synthetic BFP”).
(§1) The fluorescence spectra were determined as follows. For coelenteramide analogue alone, the fluorescence was measured according to the procedures for semi-synthetic gFP and semi-synthetic BFP described in EXAMPLES 11 and 12, except for in the absence of apoaequorin, using 1 ml of 50 mM Tris-HCl (pH 7.6) containing 10 mM EDTA and 1 mM DTT or 1 ml of 50 mM Tris-HCl (pH 7.6) containing 10 mM CaCl2 and 1 mM DTT, in the final concentration of coelenteramide analogue adjusted to 8 μg/ml. The fluorescence spectra were measured at 25° C. in a quartz cell (10 mm light path length) using a Jasco FP-6500 spectrofluorometer (excitation wavelength: 337 nm, emission/excitation bandwidth: 3 nm; response: 0.5 sec, scan speed, 1000 nm/min).

[2] = biological target: T1, apoaequorin; assay: Fluorescence spectra of semi-synthetic gFP (coelenteramide analogue + apoaequorin, EDTA); conditions: 10 mM EDTA buffer, excitation 337 nm
Protocol: Semi-synthetic gFP was prepared from recombinant apoaequorin and coelenteramide analogues as follows. In 1 ml of 50 mM Tris-HC 1 (pH 7.6) containing 10 mM EDTA and 1 mM DTT, apoaequorin (0.2 mg) was mixed with 8 μl of a coelenteramide analogue (1 μg/μl in anhydrous methanol). The mixture was allowed to stand 4° C. for 16 hours to prepare semi-synthetic gFP-like protein (hereinafter sometimes simply referred to as “semi-synthetic gFP”).
as §1

[3] = Fluorescence spectra of coelenteramide analogue alone (absence of apoaequorin); conditions: analogue alone 8 μg/ml; for Coelenteramide (Buffer containing CaCl2) Fluorescence intensity (rlu) / Coelenteramide (Buffer containing CaCl2) Maximum fluorescence wavelength λmax (nm): 10 mM CaCl2 buffer pH 7.6, excitation 337 nm; for Coelenteramide (EDTA-containing buffer) Fluorescence intensity (rlu) / Coelenteramide (EDTA-containing buffer) Maximum fluorescence wavelength λmax (nm): 10 mM EDTA buffer pH 7.6, excitation 337 nm
Protocol: as §1

T1 sequence (P07164 other isoform, or with tags, fused parts or gaps with the stated changes): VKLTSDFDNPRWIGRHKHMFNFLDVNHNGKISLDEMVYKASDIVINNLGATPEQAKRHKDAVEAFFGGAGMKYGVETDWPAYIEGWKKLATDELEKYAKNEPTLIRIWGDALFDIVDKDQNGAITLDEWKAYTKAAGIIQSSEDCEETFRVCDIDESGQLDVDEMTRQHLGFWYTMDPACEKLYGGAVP

SMILES	Fluorescence intensity [1] [rlu]	Semi-synthetic BFP (Buffer containing CaCl2) Maximum fluorescence wavelength λmax (nm) [1] [nm]	Semi-synthetic gFP (EDTA-containing buffer) Fluorescence intensity (rlu) [2] [rlu]	Semi-synthetic gFP (EDTA-containing buffer) Maximum fluorescence wavelength λmax (nm) [2] [nm]	Coelenteramide (Buffer containing CaCl2) Fluorescence intensity (rlu) [3] [rlu]	Coelenteramide (Buffer containing CaCl2) Maximum fluorescence wavelength λmax (nm) [3] [nm]	Coelenteramide (EDTA-containing buffer) Fluorescence intensity (rlu) [3] [rlu]	Coelenteramide (EDTA-containing buffer) Maximum fluorescence wavelength λmax (nm) [3] [nm]
O=C(Cc1ccc(O)cc1)Nc1ncc(-c2ccc(O)cc2)nc1-c1ccc2ccccc2c1 [Compound 4e, 2-(4-Hydroxyphenyl)-N-[5-(4-hydroxyphenyl)-3-(naphthalen-2-yl)pyrazin-2-yl]acetamide]	85.6	492.5	72.6	487.0	28.6	478.0	28.9	478.0
O=C(Cc1ccc(O)cc1)Nc1ncc(-c2ccc(O)cc2)nc1/C=C/c1ccccc1 [Compound 4b]	52.7	544.5	43.2	530.0	9.4	494.5	7.1	495.5
O=C(Cc1ccc(O)cc1)Nc1ncc(-c2ccc(O)cc2)nc1CCc1ccccc1 [Compound 4r, 2-(4-Hydroxyphenyl)-N-[5-(4-hydroxyphenyl)-3-phenethylpyrazin-2-yl]acetamide]	159.9	468.0	176.4	468.0	10.2	483.0	10.3	481.0
O=C(Cc1ccc(O)cc1)Nc1cnc(-c2ccc(O)cc2)cn1 [Compound 4s, 2-(4-Hydroxyphenyl)-N-[5-(4-hydroxyphenyl)pyrazin-2-yl]acetamide]	22.1	408.5	106.4	460.0	2.0	468.5	1.9	457.5
C=C(c1ccccc1)c1nc(-c2ccc(O)cc2)cnc1NC(=O)Cc1ccc(O)cc1 [Compound 4c, 2-(4-Hydroxyphenyl)-N-[5-(4-hydroxyphenyl)-3-(1-phenylvinyl)pyrazin-2-yl]acetamide]	25.6	492.5	32.1	499.0	12.4	471.0	11.8	475.5
O=C(Cc1ccc(O)cc1)Nc1ncc(-c2ccc(O)cc2)nc1-c1ccccc1 [Compound 4a, 2-(4-Hydroxyphenyl)-N-[5-(4-hydroxyphenyl)-3-phenylpyrazin-2-yl]acetamide]	148.9	507.5	82.9	521.5	2.0	467.5	1.9	471.0
